Reference: patent US20250059139A1, “COMPOUNDS FOR TREATMENT OF CANCER” (THE JOHNS HOPKINS UNIVERSITY, priority 2021, published 2025)

Target: T1, fl-HDAC4 (Homo sapiens, UniProt P56524)
T1 construct: Full-length (fl) [A.A. 1-1082] recombinant human histone deacetylase 4 (rhHDAC4) protein; FLAG (N); GST (given as 'with or without'); made in house; host or cells: HEK293-T
Assay: HDAC4 enzymatic assay with Lys(Tfa)-AMC substrate
Assay type: biochemical
Description: HDAC4 Enzymatic Assay. HDAC4 activity of the various recombinant forms used through these studies was assayed using the small non-protein Lys(Tfa)-AMC as described previously (Bottomley et al. J. Biol. Chem. 2008, 283:26694-26704). The specificity of this assay is documented via its inhibition by a small molecule trifluoroacetylthiophene-trifluoromethylketone derivative (TFT-PIP) described previously (id.).
Thus, TasQ's inhibition of HDAC4/NCoR1 formation involves only its binding to HDAC4. To resolve whether such TasQ binding involves the ZCD vs. ZRD in HDAC4, we took advantage of the fact that while HDAC4 has only marginal deacetylase activity against acetylated lysine-containing proteins, it can deacetylate a small non-protein trifluoroacetamide substrate (a.k.a., Lys(Tfa)-AMC). This reaction is inhibited by a small molecule trifluoroacetylthiophene-trifluoromethylketone derivative [a.k.a., TFT-PIP (FIG. 16)] due to its binding to the catalytic Zn^2+ in the ZCD, which locks the ZRD in the open conformation (Bottomley 2008).

T1 sequence (P56524 whole entry): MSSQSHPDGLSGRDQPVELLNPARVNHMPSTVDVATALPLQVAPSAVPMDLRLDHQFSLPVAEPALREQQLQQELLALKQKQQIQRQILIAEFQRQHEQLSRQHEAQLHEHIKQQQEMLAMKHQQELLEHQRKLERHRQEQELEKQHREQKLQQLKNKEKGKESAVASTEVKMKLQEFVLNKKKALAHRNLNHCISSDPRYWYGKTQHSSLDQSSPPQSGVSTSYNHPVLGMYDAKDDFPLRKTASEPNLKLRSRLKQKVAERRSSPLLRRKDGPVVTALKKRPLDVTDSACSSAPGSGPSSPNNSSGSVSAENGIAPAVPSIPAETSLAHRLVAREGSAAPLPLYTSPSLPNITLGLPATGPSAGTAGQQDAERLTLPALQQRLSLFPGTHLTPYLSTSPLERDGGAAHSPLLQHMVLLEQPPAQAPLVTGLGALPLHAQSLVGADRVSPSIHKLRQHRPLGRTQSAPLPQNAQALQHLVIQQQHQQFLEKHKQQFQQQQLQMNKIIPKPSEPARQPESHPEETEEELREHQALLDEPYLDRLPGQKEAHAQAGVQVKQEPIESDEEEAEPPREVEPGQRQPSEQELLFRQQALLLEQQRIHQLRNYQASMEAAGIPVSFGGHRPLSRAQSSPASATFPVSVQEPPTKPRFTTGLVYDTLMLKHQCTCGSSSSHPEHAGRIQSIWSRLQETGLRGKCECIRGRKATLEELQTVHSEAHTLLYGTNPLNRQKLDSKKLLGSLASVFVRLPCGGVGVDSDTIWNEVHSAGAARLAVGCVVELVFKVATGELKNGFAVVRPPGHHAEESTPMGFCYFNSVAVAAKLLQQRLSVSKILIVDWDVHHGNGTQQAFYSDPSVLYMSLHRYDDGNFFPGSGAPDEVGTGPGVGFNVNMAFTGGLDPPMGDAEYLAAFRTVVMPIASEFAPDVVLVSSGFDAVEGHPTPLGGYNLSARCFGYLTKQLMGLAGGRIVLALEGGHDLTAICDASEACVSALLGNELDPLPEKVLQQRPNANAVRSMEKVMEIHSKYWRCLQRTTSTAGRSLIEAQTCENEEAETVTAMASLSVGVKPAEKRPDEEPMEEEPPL

O=C(c1ccc(C(=O)C(F)(F)F)s1)N1CCn2c(-c3ccccc3)cnc2C1 [TFT-PIP]
effect on enzymatic activity of fl-HDAC4: inhibited
